# Reference: paper PMC8621570, “Mechanistic Studies of Antibiotic Adjuvants Reducing Kidney’s Bacterial Loads upon Systemic Monotherapy” (Pharmaceutics, 2021)
# Experiments:
# Organ bio-distribution = assay type: in vivo, mouse; conditions: 3 h post single S.C 12.5 mg/kg, ICR mice, organ homogenates, LC-MS
# Experimental: C14(ω5)OOc10O was subjected to preliminary pharmacokinetics (PK) analysis to determine its plasma concentrations or organ bio-distribution following S.C administration to non-neutropenic pathogen-free mice. OAC quantification was performed by LC-MS as follows: blood was drawn at various time intervals and plasma was separated by centrifugation (5000 RCF, 10 min). Organs were excised and homogenized. Then, OAC was extracted from both plasma and organ homogenates by incubation with 50% acetonitrile: 50% methanol at room temperature with shaking for 30 min, and subsequent centrifugation (5000 RCF, 10 min). Supernatants were diluted two-fold in distilled water and analyzed by LC-MS (ULC ultimate 3000 DIONEX, MS BRUKER Maxis impact). Quantification was based on standard calibration curves, prepared by spiking fresh mice plasma (for PK) or water (for organ bio-distribution) with various amounts of the tested OAC (final concentrations from 2.5 to 50 µg/mL) and subjected to an identical procedure as described above.
# Figure 10 Systemic efficacy studies using mouse infection models. (a,b) Data points represent colony forming unit (CFU) counts harvested from infected mice (8 and 10 mice per group, respectively). […]
# Maximum tolerated dose = assay type: in vivo, mouse; conditions: single-dose subcutaneous, uninfected ICR mice, three mice per dose, monitored 7 days
# Experimental: Animals: All animal studies were performed using male ICR mice (25 ± 2 gr). The Technion Animal Care and Use committee approved all procedures, care, and handling of animals. Ethics approval codes: IL0800519, IL0640421, IL0550618, IL1811217.
# The maximum tolerated dose (MTD) was determined after a single-dose subcutaneous (S.C) administration of C14(ω5)OOc10O using three mice per dose. Animals were monitored for adverse effects for 7 days after injection.
# E. coli 25922 = assay type: cell-based, Escherichia coli; conditions: 25922, 24 h
# Experimental: Sensitization to plasma components was assessed by mixing bacteria with serial two-fold OAC dilutions in 80% human plasma (Israel Blood Bank) or plasma from the specified species (Technion preclinical research authority or VetSource), as described. Data were obtained from three independent experiments.
# Figure 3 Animal plasma antibacterial activities against E. coli 25922. (a) Dose-dependent reduction of colony forming units (CFU) as determined 24 h after exposure to C14(ω5)OOc10O in human plasma (80% final plasma concentration in PBS). Values represent the mean ± SD obtained from three individual plasma donors (mean inoculum was 1.6 ± 0.8 × 10^6 CFU/mL). (b) Time-kill kinetics determined upon E. coli exposure to 0, 2.5, 5, and 10 µM C14(ω5)OOc10O (from top to bottom, respectively). Values represent the mean ± SD obtained from two individual plasma samples, each subjected to two independent assays. Panels (c–f), respectively, show the OAC’s concentration-dependent activities in plasma samples obtained from pig, cat, sheep, and dog. The three dashed horizontal lines respectively represent the average CFU count of the vehicle control (upper line), the inoculum (middle line), and the limit of detection (lower line), i.e., log10 50 CFU/mL = 1.69. Green stars (*) denote lack of detectable CFU.
compound,measurement,setting,value
CCCCC=CCCCCCCCC(=O)N[C@@H](CCCN)C(=O)N[C@@H](CCCN)C(=O)NCCCCCCCCCC(=O)N[C@@H](CCCN)C(N)=O [C14(ω5)OOc10O],"Concentration in liver and kidneys relative to lymph nodes, thighs, bladder, brain or spleen",Organ bio-distribution,at least 3 times
same,Maximal tolerated dose (MTD),Maximum tolerated dose,higher than 40 mg/kg
same,"MIC, cat plasma",E. coli 25922,≥ 20 µM
same,"MIC, dog plasma",E. coli 25922,≥ 20 µM
same,"MIC, human plasma",E. coli 25922,2.5 to 5 µM
